# Test results published in US9073858B2, “Methods of targeted drug development” (priority 2010, dated 2015).
# Read-outs that look alike come from different tables or passages of the source.
# Legend:
# [1] = Stability on incubation with mouse liver microsomes (MLM); type: in vitro ADME; conditions: percentage left after incubation with mouse liver microsomes for 30 minutes
# In short: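 Values are percent compound remaining after 30 min incubation with mouse or human liver microsomes.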
# H1975 cells = assay: H1975 Cell Proliferation Assay (MTT); type: cell-based; conditions: Homo sapiens
# A549 cells = assay: A549 Cell Proliferation Assay (MTT); type: cell-based; conditions: Homo sapiens
# HT-29 cells = assay: HT-29 Cell Proliferation Assay (MTT); type: cell-based; conditions: Homo sapiens, HT-29, 72 h, read-out: IC50 Value (μM) HT-29 Cells
# [2] = tested on: DNA fragmentation in A549 cells; assay: DNA Fragmentation Assay (Cell Death Detection ELISA); type: cell-based; conditions: for Emax at 1 µM / Emax at 10 µM: A549, read-out: % Increase Relative to Staurosporin
# [3] = NCI-H1975, 72 h, read-out: IC50 Value (μM) H1975 Cells
# [4] = A549, 72 h, read-out: IC50 Value (μM) A549 Cells
# [5] = Homo sapiens, A549, 24 h, read-out: % Increase over Background
SMILES,MLM % Remaining@ 30 Min [1],IC50 (H1975 cells; [3]),IC50 (A549 cells; [4]),IC50 (HT-29 cells),"activation at 10 µM [2, 5]",Emax at 1 µM ([2]; Homo sapiens),Emax at 10 µM ([2]; Homo sapiens),"IC50 (H1975 cells; NCI-H1975, H1975 cells, 72 hours post compound treatment, read-out: IC50 (best fit value from FIG. 10))","IC50 (H1975 cells; NCI-H1975, H1975 cells, 72 hours post compound treatment, read-out: Log IC50 (best fit value from FIG. 10) (converted))","IC50 (H1975 cells; NCI-H1975, MTT, 72 hours, read-out: IC50 Value (μM) H1975 Cells)","IC50 (A549 cells; A549, read-out: IC50, cell proliferation in A549 or H1975 cells)","apoptotic activity ([2]; Caspase, DNA Fragmentation, Annexin-V)","activation at 1 µM [2, 5]"
Cc1c(Cl)cnc(NC(c2cccc(Cl)c2Cl)c2ccc3cccnc3c2O)c1F (centres unmarked) [AD4-13192],63%,0.19 µM,0.15 µM,2.2 µM,561%,11%,55%,,,,,,
Oc1c(C(Nc2ccccn2)c2ccc(C(F)(F)F)cc2)ccc2cccnc12 (centres unmarked) [compound 10460],,,,,,,,0.304 µM,0.304 µM,0.3 µM,,,
Cc1cc(Cl)cnc1NC(c1ccc(Cl)cc1Cl)c1ccc2cccnc2c1O (centres unmarked) [AD4-13130],69%,0.088 µM,0.12 µM,0.64 µM,684%,62%,69%,,,,≤ 0.1 µM,increased apoptotic activity,630%
